The source of these data is US6989385B2, “Pyrazole compounds useful as protein kinase inhibitors” (Vertex Pharmaceuticals Incorporated, priority 2000, dated 2006).

SMILES strings stand for the structures.

The test has as its target T1, Aurora-2 (Homo sapiens, UniProt O14965).
T1 sequence (O14965 1-403): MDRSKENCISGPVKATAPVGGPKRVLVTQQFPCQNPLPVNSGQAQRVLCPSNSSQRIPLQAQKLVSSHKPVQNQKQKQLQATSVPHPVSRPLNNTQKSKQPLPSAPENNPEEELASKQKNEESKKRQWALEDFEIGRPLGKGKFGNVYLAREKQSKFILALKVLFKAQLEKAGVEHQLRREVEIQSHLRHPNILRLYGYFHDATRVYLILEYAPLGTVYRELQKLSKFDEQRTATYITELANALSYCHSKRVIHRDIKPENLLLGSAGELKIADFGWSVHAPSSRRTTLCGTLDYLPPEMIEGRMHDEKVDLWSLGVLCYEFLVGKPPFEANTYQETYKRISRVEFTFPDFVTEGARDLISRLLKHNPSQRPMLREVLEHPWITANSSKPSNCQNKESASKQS
Kind of test: Ki determination for the inhibition of Aurora-2 (coupled enzyme assay). Format: biochemical. Conditions: 70 nM Aurora-2, 30° C. On the procedure:
To an assay stock buffer solution containing 0.1 M HEPES 7.5, 10 mM MgCl2, 1 mM DTT, 25 mM NaCl, 2.5 mM phosphoenolpyruvate, […], 30 mg/ml pyruvate kinase, 10 mg/ml lactate dehydrogenase, 40 mM ATP, and 800 μM peptide (LRRASLG, American Peptide, Sunnyvale, Calif.) was added a DMSO solution of a compound of the present invention to a final concentration of 30 μM. The resulting mixture was incubated at 30° C. for 10 min. The reaction was initiated by the addition of 10 μL of Aurora-2 stock solution to give a final concentration of 70 nM in the assay. […] The Ki values were determined from the rate data as a function of inhibitor concentration.

As usually defined, the Ki is a dissociation constant, usually derived from enzyme kinetics or from competition with a known ligand. Turning to `Cc1cc(Nc2cc(C)[nH]n2)nc(C(C)(C)c2ccccc2)n1` [IIId-20], the Ki is 100 to 1000 nM.
